# From patent US20050222200A1, “AMIDE DERIVATIVES AS ION CHANNEL LIGANDS AND PHARMACEUTICAL COMPOSITIONS AND METHODS OF USING THE SAME” (Renovis, Inc., priority 2003, published 2005)
# Molecular target: T1, VR1 (Homo sapiens, UniProt Q8NER1)
# T1 construct: expressed in transfected cells; host or cells: 293 cells ("293 neurons" [sic])
# Test: High throughput calcium imaging assay of VR1 antagonists (Fura2, Flex Station, 96 well); further: test concentration or dose not given here
# Type: cell-based
# Settings: Table 1 activity class
# T1 sequence (Q8NER1 whole entry, species assumed): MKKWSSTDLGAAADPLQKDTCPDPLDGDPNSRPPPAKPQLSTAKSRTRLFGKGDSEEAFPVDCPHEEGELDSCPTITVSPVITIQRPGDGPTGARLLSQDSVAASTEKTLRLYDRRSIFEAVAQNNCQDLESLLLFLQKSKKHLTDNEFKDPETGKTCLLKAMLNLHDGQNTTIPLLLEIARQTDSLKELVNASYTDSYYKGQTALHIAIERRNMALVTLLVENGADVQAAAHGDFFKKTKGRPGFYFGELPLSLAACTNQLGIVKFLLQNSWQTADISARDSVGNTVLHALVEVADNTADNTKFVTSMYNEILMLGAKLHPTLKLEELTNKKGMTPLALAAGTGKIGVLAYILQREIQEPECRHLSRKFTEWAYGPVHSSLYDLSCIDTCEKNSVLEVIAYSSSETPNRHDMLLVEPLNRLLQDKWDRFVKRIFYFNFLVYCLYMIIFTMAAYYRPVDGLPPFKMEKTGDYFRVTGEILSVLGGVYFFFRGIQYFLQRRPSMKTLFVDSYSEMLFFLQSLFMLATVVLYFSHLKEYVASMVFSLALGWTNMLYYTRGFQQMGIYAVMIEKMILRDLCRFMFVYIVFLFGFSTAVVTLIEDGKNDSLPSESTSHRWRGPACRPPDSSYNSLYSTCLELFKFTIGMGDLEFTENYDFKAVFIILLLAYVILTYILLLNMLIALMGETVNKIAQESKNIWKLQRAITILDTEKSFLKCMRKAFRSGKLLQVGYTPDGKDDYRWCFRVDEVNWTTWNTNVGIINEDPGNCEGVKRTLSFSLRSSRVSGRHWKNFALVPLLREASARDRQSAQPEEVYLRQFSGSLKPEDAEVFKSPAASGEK
row,SMILES,inhibition of calcium ion influx induced by capsaicin stimulation
1,CC(C)(C)/C=C/c1ccc(C(=O)NCCc2ccccc2Cl)cc1 [Compound 11],++++ (compound exhibited 75% or greater inhibition of calcium ion influx induced by capsaicin stimulation)
2,CC(C)(C)/C=C/c1ccc(C(=O)NC2CCC(C(C)(C)C)CC2)cc1 (stereo not shown) [Compound 12],+ (compound exhibited 0-25% inhibition of calcium ion influx induced by capsaicin stimulation)
3,CC(C)(C)/C=C/c1ccc(C(=O)NCc2ccccc2)cc1 [Compound 13],+ (compound exhibited 0-25% inhibition of calcium ion influx induced by capsaicin stimulation)
4,CCCNC(=O)c1ccc(/C=C/C(C)(C)C)cc1 [Compound 14],+ (compound exhibited 0-25% inhibition of calcium ion influx induced by capsaicin stimulation)
5,COc1ccc(NC(=O)c2ccc(/C=C/C(C)(C)C)cc2)cc1 [Compound 15],+ (compound exhibited 0-25% inhibition of calcium ion influx induced by capsaicin stimulation)
6,CC(C)(C)/C=C/c1ccc(C(=O)NCC2CCCO2)cc1 (stereo not shown) [Compound 16],+ (compound exhibited 0-25% inhibition of calcium ion influx induced by capsaicin stimulation)
7,CC(C)(C)/C=C/c1ccc(C(=O)NCc2ccc3c(c2)OCO3)cc1 [Compound 17],+ (compound exhibited 0-25% inhibition of calcium ion influx induced by capsaicin stimulation)
8,CC(C)(C)/C=C/c1ccc(C(=O)NCCc2ccc(S(C)(=O)=O)cc2)cc1 [Compound 20],+ (compound exhibited 0-25% inhibition of calcium ion influx induced by capsaicin stimulation)
9,COc1ccc(CCNC(=O)c2ccc(/C=C/C(C)(C)C)cc2)cc1OC [Compound 24],+ (compound exhibited 0-25% inhibition of calcium ion influx induced by capsaicin stimulation)
10,CC(C)(C)/C=C/c1ccc(C(=O)NC(C)(C)c2ccccc2)cc1 [Compound 26],+ (compound exhibited 0-25% inhibition of calcium ion influx induced by capsaicin stimulation)
11,CC(C)(C)/C=C/c1ccc(C(=O)NCc2cccs2)cc1 [Compound 29],+ (compound exhibited 0-25% inhibition of calcium ion influx induced by capsaicin stimulation)
12,CC(C)(C)/C=C/c1ccc(C(=O)Nc2ccccc2C#N)cc1 [Compound 30],++ (compound exhibited 25-50% inhibition of calcium ion influx induced by capsaicin stimulation)
13,COc1ccccc1NC(=O)c1ccc(/C=C/C(C)(C)C)cc1 [Compound 31],+ (compound exhibited 0-25% inhibition of calcium ion influx induced by capsaicin stimulation)
14,CC(C)(C)/C=C/c1ccc(C(=O)Nc2ccccc2Cl)cc1 [Compound 33],+ (compound exhibited 0-25% inhibition of calcium ion influx induced by capsaicin stimulation)
15,COc1ccc(CNC(=O)c2ccc(/C=C/C(C)(C)C)cc2)cc1OC [Compound 35],+ (compound exhibited 0-25% inhibition of calcium ion influx induced by capsaicin stimulation)
16,COc1ccc(NC(=O)c2ccc(/C=C/C(C)(C)C)cc2)cc1Cl [Compound 37],+ (compound exhibited 0-25% inhibition of calcium ion influx induced by capsaicin stimulation)
17,CC(C)(C)/C=C/c1ccc(C(=O)Nc2cccc(C#N)c2)cc1 [Compound 38],+ (compound exhibited 0-25% inhibition of calcium ion influx induced by capsaicin stimulation)
18,CC(C)(C)/C=C/c1ccc(C(=O)Nc2ccccc2CCO)cc1 [Compound 39],++++ (compound exhibited 75% or greater inhibition of calcium ion influx induced by capsaicin stimulation)
19,CC(C)(C)/C=C/c1ccc(C(=O)Nc2ccc(C(C)(C)C)cc2)cc1 [Compound 40],+++ (compound exhibited 50-75% inhibition of calcium ion influx induced by capsaicin stimulation)
